{"source": "patent US20110111016A1", "about": "“NON-DNA BASE-CONTAINING POLYNUCLEOTIDE COMPOSITIONS AND THEIR USE FOR THE MODULATION OF IMMUNE RESPONSES” (priority 2009, published 2011)", "type_in_all_cases": "cell-based", "key": {"human TLR2": {"biological_target": "T1, human TLR2 (Homo sapiens, UniProt O60603)", "T1 construct": "host or cells: HEK293", "T1 sequence (O60603 21-784)": "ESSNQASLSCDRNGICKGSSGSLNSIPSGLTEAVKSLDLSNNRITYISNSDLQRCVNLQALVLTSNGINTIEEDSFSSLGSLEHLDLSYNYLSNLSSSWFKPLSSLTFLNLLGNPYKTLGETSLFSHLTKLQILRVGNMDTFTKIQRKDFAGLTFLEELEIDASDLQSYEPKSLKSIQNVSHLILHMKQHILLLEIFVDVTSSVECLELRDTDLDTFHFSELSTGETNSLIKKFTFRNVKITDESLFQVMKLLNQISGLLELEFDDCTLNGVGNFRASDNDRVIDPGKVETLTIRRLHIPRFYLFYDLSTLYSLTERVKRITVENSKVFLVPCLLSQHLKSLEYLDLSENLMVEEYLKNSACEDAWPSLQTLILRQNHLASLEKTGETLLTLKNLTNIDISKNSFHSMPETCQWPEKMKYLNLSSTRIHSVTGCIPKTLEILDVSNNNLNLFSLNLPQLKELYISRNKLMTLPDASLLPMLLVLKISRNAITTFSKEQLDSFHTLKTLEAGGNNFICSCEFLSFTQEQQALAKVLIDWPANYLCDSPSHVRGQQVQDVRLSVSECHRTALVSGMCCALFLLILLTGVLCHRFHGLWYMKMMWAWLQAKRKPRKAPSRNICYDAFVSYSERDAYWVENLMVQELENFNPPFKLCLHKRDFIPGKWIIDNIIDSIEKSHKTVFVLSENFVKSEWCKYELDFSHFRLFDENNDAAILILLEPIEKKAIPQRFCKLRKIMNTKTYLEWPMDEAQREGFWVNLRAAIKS", "experiment": "NF-κB activation (secreted alkaline phosphatase reporter) in HEK293 cells expressing human TLR2", "settings": "HEK293/hTLR2 cell line; polynucleotide final concentration 10 μg/mL; 16-20 hours", "protocol": "(§1) Toll-like receptors (TLR) are known to interact with a number of natural and synthetic molecules that can function as immune adjuvants. Examples of these molecules are Poly (I:C) polynucleotides, lipopolysaccharide and CpG-containing polynucleotides. The interaction of non-DNA base-containing polynucleotides (SEQ ID NOs: 1-3) to interact with TLR and induce down-stream signaling was tested by assessing NF-κB activation in HEK293 cells expressing human TLR2, 3, 4, 5, 7, 8 and 9. TLR engagement was determined by measurement of secreted alkaline phosphatase, under the control of a reporter inducible by NF-κB. Appropriate positive controls were used for each TLR. The non-DNA base-containing polynucleotides were dissolved in sterile water at a concentration of 100 μg/mL, and used at a final concentration of 10 μg/mL. HEK293 cells containing the appropriate TLR and NF-κB reporting system (InvivoGen, San Diego, Calif., USA) were placed in wells of 96 well plates (25,000-50,000 cells, in a final volume of 200 μL medium designed for the detection of NF-κB induced secreted alkaline phosphatase expression), and incubated with non-DNA base-containing polynucleotides or positive controls for 16-20 hours. TLR activating activity was determined by measurement of absorbance at 650 nm wavelength using a Coulter AD340C absorbance detector. The results shown are expressed as Optical Density (OD)."}, "human TLR4": {"biological_target": "T2, human TLR4 (Homo sapiens, UniProt O00206+Q9Y6Y9)", "T2 construct": "host or cells: HEK293", "T2 sequence (Q9Y6Y9 17-160)": "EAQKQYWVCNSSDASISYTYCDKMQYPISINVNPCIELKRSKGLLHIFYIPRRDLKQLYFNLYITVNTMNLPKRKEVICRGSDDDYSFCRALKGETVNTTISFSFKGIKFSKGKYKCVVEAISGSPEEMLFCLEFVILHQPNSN", "T2 sequence (O00206 24-839)": "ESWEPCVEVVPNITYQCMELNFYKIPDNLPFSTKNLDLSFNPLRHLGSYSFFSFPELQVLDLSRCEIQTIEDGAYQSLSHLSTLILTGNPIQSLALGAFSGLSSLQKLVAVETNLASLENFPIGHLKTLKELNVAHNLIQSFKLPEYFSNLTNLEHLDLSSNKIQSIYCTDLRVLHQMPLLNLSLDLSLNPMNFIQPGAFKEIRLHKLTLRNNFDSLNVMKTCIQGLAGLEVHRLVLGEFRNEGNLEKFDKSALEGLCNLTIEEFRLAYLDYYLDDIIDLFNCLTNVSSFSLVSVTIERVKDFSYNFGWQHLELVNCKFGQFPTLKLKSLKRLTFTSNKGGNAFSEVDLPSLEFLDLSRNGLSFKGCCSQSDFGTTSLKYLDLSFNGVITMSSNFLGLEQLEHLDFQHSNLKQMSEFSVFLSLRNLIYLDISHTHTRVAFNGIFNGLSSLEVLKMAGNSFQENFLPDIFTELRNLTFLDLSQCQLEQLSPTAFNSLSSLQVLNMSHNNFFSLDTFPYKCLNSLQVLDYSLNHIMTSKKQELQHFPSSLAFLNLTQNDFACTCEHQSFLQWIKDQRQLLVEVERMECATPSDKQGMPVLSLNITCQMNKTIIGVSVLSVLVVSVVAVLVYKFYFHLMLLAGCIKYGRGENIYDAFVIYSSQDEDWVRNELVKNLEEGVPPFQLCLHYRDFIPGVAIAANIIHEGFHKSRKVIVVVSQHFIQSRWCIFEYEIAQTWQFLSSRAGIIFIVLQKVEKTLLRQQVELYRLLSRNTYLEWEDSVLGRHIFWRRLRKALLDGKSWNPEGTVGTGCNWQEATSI", "experiment": "NF-κB activation (secreted alkaline phosphatase reporter) in HEK293 cells expressing human TLR4", "settings": "HEK293/hTLR4 cell line; polynucleotide final concentration 10 μg/mL; 16-20 hours", "protocol": "as §1"}, "human TLR5": {"biological_target": "T3, human TLR5 (Homo sapiens, UniProt O60602)", "T3 construct": "host or cells: HEK293", "T3 sequence (O60602 21-858)": "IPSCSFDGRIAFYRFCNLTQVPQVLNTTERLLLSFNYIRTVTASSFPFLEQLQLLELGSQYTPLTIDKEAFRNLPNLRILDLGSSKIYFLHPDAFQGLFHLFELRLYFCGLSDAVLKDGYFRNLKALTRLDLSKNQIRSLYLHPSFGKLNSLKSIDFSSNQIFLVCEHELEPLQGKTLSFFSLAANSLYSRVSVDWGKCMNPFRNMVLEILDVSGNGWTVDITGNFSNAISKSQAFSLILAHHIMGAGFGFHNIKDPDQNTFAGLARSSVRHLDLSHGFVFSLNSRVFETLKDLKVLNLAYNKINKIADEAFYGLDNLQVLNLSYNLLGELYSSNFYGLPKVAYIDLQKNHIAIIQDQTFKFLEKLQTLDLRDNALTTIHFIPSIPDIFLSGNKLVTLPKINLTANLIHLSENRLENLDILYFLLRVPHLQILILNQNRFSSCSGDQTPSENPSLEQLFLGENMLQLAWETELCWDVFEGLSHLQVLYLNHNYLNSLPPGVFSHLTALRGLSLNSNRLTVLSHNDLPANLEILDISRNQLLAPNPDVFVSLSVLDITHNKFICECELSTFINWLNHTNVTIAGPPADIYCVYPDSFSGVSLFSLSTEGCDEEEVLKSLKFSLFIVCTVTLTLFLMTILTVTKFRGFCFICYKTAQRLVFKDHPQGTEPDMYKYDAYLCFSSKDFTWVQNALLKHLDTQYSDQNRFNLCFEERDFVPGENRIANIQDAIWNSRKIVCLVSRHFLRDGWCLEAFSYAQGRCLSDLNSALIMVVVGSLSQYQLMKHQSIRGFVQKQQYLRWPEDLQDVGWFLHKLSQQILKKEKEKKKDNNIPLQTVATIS", "experiment": "NF-κB activation (secreted alkaline phosphatase reporter) in HEK293 cells expressing human TLR5", "settings": "HEK293/hTLR5 cell line; polynucleotide final concentration 10 μg/mL; 16-20 hours", "protocol": "as §1"}, "human TLR7": {"biological_target": "T4, human TLR7 (Homo sapiens, UniProt Q9NYK1)", "T4 construct": "host or cells: HEK293", "T4 sequence (Q9NYK1 27-1049)": "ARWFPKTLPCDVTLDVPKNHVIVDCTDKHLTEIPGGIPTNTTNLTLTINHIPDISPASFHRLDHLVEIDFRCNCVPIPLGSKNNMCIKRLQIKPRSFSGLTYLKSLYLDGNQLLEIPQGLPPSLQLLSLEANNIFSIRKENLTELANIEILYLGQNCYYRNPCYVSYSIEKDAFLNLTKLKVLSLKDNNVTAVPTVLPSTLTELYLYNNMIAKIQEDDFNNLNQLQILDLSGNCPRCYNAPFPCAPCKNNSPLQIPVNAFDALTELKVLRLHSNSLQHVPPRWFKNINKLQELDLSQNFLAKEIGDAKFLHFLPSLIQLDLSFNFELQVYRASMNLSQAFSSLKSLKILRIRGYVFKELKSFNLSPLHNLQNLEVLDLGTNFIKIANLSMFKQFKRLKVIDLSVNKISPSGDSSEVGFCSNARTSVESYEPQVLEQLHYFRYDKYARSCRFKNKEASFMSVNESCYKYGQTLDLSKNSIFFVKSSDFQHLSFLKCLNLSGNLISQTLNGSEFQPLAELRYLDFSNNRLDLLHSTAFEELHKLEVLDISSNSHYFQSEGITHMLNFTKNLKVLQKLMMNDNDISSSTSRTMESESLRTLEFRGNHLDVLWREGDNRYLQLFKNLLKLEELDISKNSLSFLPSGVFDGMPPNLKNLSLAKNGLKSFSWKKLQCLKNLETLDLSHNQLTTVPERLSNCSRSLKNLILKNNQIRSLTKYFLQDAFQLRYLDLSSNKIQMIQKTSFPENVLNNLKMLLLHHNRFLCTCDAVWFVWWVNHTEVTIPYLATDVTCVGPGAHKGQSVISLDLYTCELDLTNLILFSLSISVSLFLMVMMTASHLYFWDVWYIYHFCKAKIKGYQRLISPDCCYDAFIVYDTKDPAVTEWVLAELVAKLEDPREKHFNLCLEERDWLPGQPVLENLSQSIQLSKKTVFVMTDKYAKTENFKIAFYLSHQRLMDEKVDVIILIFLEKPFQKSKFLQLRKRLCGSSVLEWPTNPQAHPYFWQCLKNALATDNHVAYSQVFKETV", "experiment": "NF-κB activation (secreted alkaline phosphatase reporter) in HEK293 cells expressing human TLR7", "settings": "HEK293/TLR7 cell line; polynucleotide final concentration 10 μg/mL; 16-20 hours", "protocol": "as §1, with “The interaction of non-DNA base-containing polynucleotides (SEQ ID NOs: 1-3) to interact with TLR and induce down-stream signaling was tested by assessing NF-κB activation in HEK293 cells expressing human TLR2, 3, 4, 5, 7, 8 and 9.” left out"}}, "data": [{"substance": "NebGGTGNeb (DNA NGGTGN; Nebularine at both ends, sugar and linkages not given here, further chemistry not given here) [SEQ ID NO: 1, 5′-OH, 3′-OH non-DNA base-containing polynucleotide]", "values": [{"measurement": "TLR activation, Optical Density at 650 nm, hTLR2", "setting": "human TLR2", "value": 0.093}, {"measurement": "TLR activation, Optical Density at 650 nm, hTLR4", "setting": "human TLR4", "value": 0.050}, {"measurement": "TLR activation, Optical Density at 650 nm, hTLR5", "setting": "human TLR5", "value": 0.158}, {"measurement": "TLR activation, Optical Density at 650 nm, hHTR7", "setting": "human TLR7", "value": 0.097}]}, {"substance": "IIGTII [SEQ ID NO: 3]", "values": [{"measurement": "TLR activation, Optical Density at 650 nm, hTLR2", "setting": "human TLR2", "value": 0.095}, {"measurement": "TLR activation, Optical Density at 650 nm, hTLR4", "setting": "human TLR4", "value": 0.050}, {"measurement": "TLR activation, Optical Density at 650 nm, hTLR5", "setting": "human TLR5", "value": 0.155}, {"measurement": "TLR activation, Optical Density at 650 nm, hHTR7", "setting": "human TLR7", "value": 0.093}]}, {"substance": "UUGTUU [SEQ ID NO: 2]", "values": [{"measurement": "TLR activation, Optical Density at 650 nm, hTLR2", "setting": "human TLR2", "value": 0.095}, {"measurement": "TLR activation, Optical Density at 650 nm, hTLR4", "setting": "human TLR4", "value": 0.052}, {"measurement": "TLR activation, Optical Density at 650 nm, hTLR5", "setting": "human TLR5", "value": 0.143}, {"measurement": "TLR activation, Optical Density at 650 nm, hHTR7", "setting": "human TLR7", "value": 0.090}]}]}
